Experimental data from patent publication US20110263580A1, “METHOD FOR TREATING ALZHEIMER'S DISEASE AND RELATED CONDITIONS” (priority 2008, published 2011).
Where two headings read alike, the source gives them in different places.

Columns and labels:
[1] = rhesus monkey, in vivo; for Tolerated: po
Experimental: Compound IA (synthesis example 2 herein) was administered orally to groups of rhesus monkeys by continuous and intermittent regimens over periods of days or weeks. Physical signs were recorded and the absence of loose stool, and other overt physical signs, was taken as tolerance.

Aβ [2] = experiment: CSF levels of Aβ post-dose in rhesus monkey; format: in vivo
[3] = mouse, in vivo, po
Experimental: Compound IIIA (prepared as described in Sparey et al, Bioorg. Med. Chem. Lett. (2005) 15, 4212-4216) was administered orally to groups of mice (n=10) via gavage in 0.5% methylcellulose by a variety of continuous and intermittent regimens over periods of several weeks, and body weights recorded twice-weekly as a measure of tolerance or otherwise of the drug treatment. Less than 20% loss of body weight after 21 days, with no other overt symptoms, was taken as tolerance, and the results are summarised in the following table: […]

[4] = Plasma levels of the drug after a single dose in mice; format: in vivo; conditions: single dose of 300 mg/Kg
Experimental: (§1) Compound IIIA (prepared as described in Sparey et al, Bioorg. Med. Chem. Lett. (2005) 15, 4212-4216) was administered orally to groups of mice (n=10) via gavage in 0.5% methylcellulose by a variety of continuous and intermittent regimens over periods of several weeks, and body weights recorded twice-weekly as a measure of tolerance or otherwise of the drug treatment. Less than 20% loss of body weight after 21 days, with no other overt symptoms, was taken as tolerance, and the results are summarised in the following table:
(§2) Plasma levels of Aβ were monitored 4 hours, 1 day, 3 days, 4 days and 7 days after a single dose of 300 mg/Kg, and found to be (respectively), 0%, 0%, 0%, 67% and 85% of the baseline (control) level, indicating prolonged therapeutic efficacy from the single dose. Plasma levels of the drug had declined to zero within 4 days of the single dose.

Aβ [5] = experiment: Plasma levels of Aβ after a single dose in mice; format: in vivo; conditions: single dose of 300 mg/Kg
Experimental: as §1, §2

Aβ42 = experiment: CSF Aβ42 in rhesus monkeys, once-weekly dosing; format: in vivo; conditions: oral, once-weekly 30 mpk, over a 3 week period, relative to vehicle-treated controls
Experimental: (§3) Compound VIB (Example 23 herein) was administered orally to rhesus monkeys once-weekly at a dose of 30 mpk and levels of Aβ40 and Aβ42 in the cerebrospinal fluid (CSF) were monitored.

Aβ40 = experiment: CSF Aβ40 in rhesus monkeys, once-weekly dosing; format: in vivo; conditions: oral, once-weekly 30 mpk, over a 3 week period, relative to vehicle-treated controls
Experimental: as §3

[6] = Side effects in rhesus monkeys, once-weekly dosing; format: in vivo; conditions: oral, once-weekly 30 mpk
Experimental: as §3

For O=S(=O)(N[C@H]1C[C@@](c2cc(F)ccc2F)(S(=O)(=O)c2ccc(Cl)cc2)C1)C(F)(F)F [Compound IA, N-[cis-3-[(4-chlorophenyl)sulfonyl]-3-(2,5-difluorophenyl)cyclobutyl]-1,1,1-trifluoromethanesulfonamide], the Tolerance [1] was “tolerated”, the Tolerated ([1]; 3 mg/kg) was “No” and the Tolerated ([1]; 50 mg/kg) was “Yes”. The Tolerated ([1]; 200 mg/kg) was “Yes”, the “Effect on CSF levels of Aβ” value (Aβ [2]; doses below 10 mg/Kg) was “do not effect Aβ levels appreciably” and the “Effect on CSF levels of Aβ” value (Aβ [2]; weekly doses) was “lower CSF Aβ significantly”.

In the case of O=S1(=O)NC2(CN1CC(F)(F)F)C1CCC2Cc2cc(C=CCN3CCC(C(F)(F)F)CC3)ccc2C1 (stereo not shown) [Compound IIIA], the Tolerated ([3]; 50 mg/kg) is reported as “Yes”, the Tolerated ([3]; 150 mg/kg) is reported as “No” and the Tolerated ([3]; 300 mg/kg) is reported as “Yes”. The “Time until plasma levels of the drug had declined to zero” value [4] was no more than 4 days, the “Plasma levels of Aβ, % of the baseline (control) level” value (Aβ [5]; 4 hours after dose) was 0% and the “Plasma levels of Aβ, % of the baseline (control) level” value (Aβ [5]; 1 day after dose) was 0%. The “Plasma levels of Aβ, % of the baseline (control) level” value (Aβ [5]; 3 days after dose) was 0%, the “Plasma levels of Aβ, % of the baseline (control) level” value (Aβ [5]; 4 days after dose) was 67% and the “Plasma levels of Aβ, % of the baseline (control) level” value (Aβ [5]; 7 days after dose) was 85%.

In the case of O=S(=O)(N[C@H]1CC[C@@](c2cc(F)ccc2C(F)(F)F)(S(=O)(=O)c2ccc(C(F)(F)F)cc2)CC1)C(F)(F)F [Compound VIB, 1,1,1-trifluoro-N-(4-[5-fluoro-2-(trifluoromethyl)phenyl]-4-{[4-(trifluoromethyl)phenyl]sulfonyl}cyclohexyl)methanesulfonamide], the “Average reduction in CSF Aβ42 levels” value (Aβ42) is reported as “approximately 40%”, the “Average reduction in CSF Aβ40 levels” value (Aβ40) is reported as “approximately 40%” and the GI toxicity ([6]; 3 week period) is reported as “no evidence of GI toxicity”. For the same compound, the “Other side-effects (study terminated after 3 weeks)” value ([6]; unconnected with Notch signalling) was “respiratory side-effects”.
